In PubChem BioAssay AID206 (DTP/NCI, 2004):
Several values for one entry are separate records, joined by “and”; a condition that tells them apart may be missing. Equal entries are not always repeated. Results filed as inconclusive are left out.

Tested on: nude mice, HT29 intrarenal xenograft, tumor weight T/C
Assay: NCI In Vivo Anticancer Drug Screen. Data for tumor model HT29;CX-1 Human Adenocarcinoma (MER+) (intrarenal inoculation) in NU/NU Swiss (nude) mice
Settings: endpoint: mean tumor weight change, higher = larger tumour
In short: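 Readout: treated/vehicle-control ratio of the measured endpoint (tumor size or survival) in transplanted-tumor mice.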

[1] = dose: 300.0 mg/kg/injection, schedule: Q04DX004 (sc), vehicle: saline
[2] = dose: 600.0 mg/kg/injection, schedule: Q04DX004 (sc), vehicle: saline
[3] = dose: 1200.0 mg/kg/injection, schedule: Q04DX004 (sc), vehicle: saline
[4] = dose: 150.0 mg/kg/injection, schedule: Q04DX004 (sc), vehicle: saline
[5] = dose: 100.0 mg/kg/injection, schedule: Q01DX010 (sc), vehicle: saline with Tween-80

SMILES: C=C[Si]12OCCN(CCO1)CCO2
- T/C (dose: 300.0 mg/kg/injection, schedule: Q04DX004 (sc), vehicle: Klucel (hydroxypropylcellulose) (HPC)): 92 % of control
- T/C (dose: 600.0 mg/kg/injection, schedule: Q04DX004 (sc), vehicle: Klucel (hydroxypropylcellulose) (HPC)): 93 % of control
- T/C (dose: 1200.0 mg/kg/injection, schedule: Q04DX004 (sc), vehicle: Klucel (hydroxypropylcellulose) (HPC)): 110 % of control
- T/C (dose: 2400.0 mg/kg/injection, schedule: Q04DX004 (sc), vehicle: Klucel (hydroxypropylcellulose) (HPC)): 71 % of control

SMILES: CCN(Cc1ccc(Cl)c(Cl)c1)c1ccc2nc(N)nc(N)c2c1C
- T/C (dose: 9.38 mg/kg/injection, schedule: Q04DX004 (sc), vehicle: distilled water + Tween-80): 44 % of control
- T/C (dose: 18.75 mg/kg/injection, schedule: Q04DX004 (sc), vehicle: distilled water + Tween-80): 54 % of control
- T/C (dose: 37.5 mg/kg/injection, schedule: Q04DX004 (sc), vehicle: distilled water + Tween-80): 93 % of control
- T/C (dose: 75.0 mg/kg/injection, schedule: Q04DX004 (sc), vehicle: distilled water + Tween-80): 47 % of control

SMILES: N=c1ccn2c(n1)OC1C(O)C(CO)OC12 (stereo not drawn)
- T/C [1]: 50 % of control
- T/C (dose: 300.0 mg/kg/injection, schedule: Q04DX004 (sc), vehicle: suspension in saline): 105 % of control
- T/C (dose: 400.0 mg/kg/injection, schedule: Q04DX004 (sc), vehicle: saline): 98 % of control
- T/C [2]: 60 % of control
- T/C (dose: 600.0 mg/kg/injection, schedule: Q04DX004 (sc), vehicle: suspension in saline): 66 % of control
- T/C (dose: 800.0 mg/kg/injection, schedule: Q04DX004 (sc), vehicle: saline): 31 % of control
- T/C [3]: 42 % of control
- T/C (dose: 1200.0 mg/kg/injection, schedule: Q04DX004 (sc), vehicle: suspension in saline): 38 % of control
- T/C (dose: 1600.0 mg/kg/injection, schedule: Q04DX004 (sc), vehicle: saline): 36 % of control
- T/C (dose: 2400.0 mg/kg/injection, schedule: Q04DX004 (sc), vehicle: suspension in saline): 42 % of control

SMILES: O=C(O)CCCc1ccc(N(CCCl)CCCl)cc1
- T/C (dose: 0.13 mg/kg/injection, schedule: Q04DX004 (ip), vehicle: Klucel (hydroxypropylcellulose) (HPC)): 88 % of control
- T/C (dose: 0.2 mg/kg/injection, schedule: Q04DX004 (ip), vehicle: Klucel (hydroxypropylcellulose) (HPC)): 109 % of control
- T/C (dose: 0.3 mg/kg/injection, schedule: Q04DX004 (ip), vehicle: Klucel (hydroxypropylcellulose) (HPC)): 83 % of control

SMILES: NC(N)=NOCC[C@@H](N)C(=O)O
- T/C [4]: 108 % of control
- T/C [1]: 75 % of control
- T/C [2]: 76 % of control
- T/C [3]: 62 % of control

SMILES: C[C@@H]1C[C@H]2[C@@H]3CCC4=CC(=O)C=C[C@]4(C)[C@@]3(F)[C@@H](O)C[C@]2(C)[C@@]1(O)C(=O)CO
- T/C (dose: 1.56 mg/kg/injection, schedule: Q01DX010 (sc), vehicle: Klucel (hydroxypropylcellulose) (HPC)): 62 % of control
- T/C (dose: 3.13 mg/kg/injection, schedule: Q01DX010 (sc), vehicle: Klucel (hydroxypropylcellulose) (HPC)): 40 % of control
- T/C (dose: 6.25 mg/kg/injection, schedule: Q01DX010 (sc), vehicle: Klucel (hydroxypropylcellulose) (HPC)): 42 % of control
- T/C (dose: 12.5 mg/kg/injection, schedule: Q01DX010 (sc), vehicle: Klucel (hydroxypropylcellulose) (HPC)): 39 % of control

SMILES: Cc1ccc2c(c1)N=C(Nc1ccccc1)N=S2(C)=O (stereo not drawn)
- T/C (dose: 50.0 mg/kg/injection, schedule: Q04DX004 (sc), vehicle: saline with Tween-80): 48 % of control
- T/C (dose: 100.0 mg/kg/injection, schedule: Q04DX004 (sc), vehicle: saline with Tween-80): 67 % of control
- T/C (dose: 200.0 mg/kg/injection, schedule: Q04DX004 (sc), vehicle: saline with Tween-80): 66 % of control

SMILES: CCCCNCCCNCCCNC(=O)c1csc(-c2csc(CCNC(=O)C(NC(=O)C(C)C(O)C(C)NC(=O)C(NC(=O)c3nc(C(CC(N)=O)NCC(N)C(N)=O)nc(N)c3C)C(OC3OC(CO)C(O)C(O)C3OC3OC(CO)C(O)C(OC(N)=O)C3O)c3cnc[nH]3)C(C)O)n2)n1 (stereo not drawn)
- T/C (dose: 8.0 mg/kg/injection, schedule: Q01DX010 (sc), vehicle: saline): 69 % of control and 83 % of control
- T/C (dose: 16.0 mg/kg/injection, schedule: Q01DX010 (sc), vehicle: saline): 76 % of control and 80 % of control
- T/C (dose: 32.0 mg/kg/injection, schedule: Q01DX010 (sc), vehicle: saline): 66 % of control and 68 % of control
- T/C (dose: 64.0 mg/kg/injection, schedule: Q01DX010 (sc), vehicle: saline): 23 % of control and 25 % of control

SMILES: NCCc1ccc(O)c(O)c1
- T/C (dose: 200.0 mg/kg/injection, schedule: Q01DX010 (sc), vehicle: saline): 78 % of control

SMILES: O=C(O)Cc1cccc2c(=O)cc(-c3ccccc3)oc12
- T/C (dose: 112.0 mg/kg/injection, schedule: Q04DX003 (ip), vehicle: sodium bicarbonate): 42 % of control
- T/C (dose: 150.0 mg/kg/injection, schedule: Q04DX003 (ip), vehicle: sodium bicarbonate): 90 % of control
- T/C (dose: 200.0 mg/kg/injection, schedule: Q01DX001 (ip), vehicle: sodium bicarbonate): 105 % of control
- T/C (dose: 200.0 mg/kg/injection, schedule: Q04DX003 (ip), vehicle: sodium bicarbonate): 46 % of control
- T/C (dose: 267.0 mg/kg/injection, schedule: Q01DX001 (ip), vehicle: sodium bicarbonate): 52 % of control

SMILES: C[n+]1ccc(Nc2ccc(NC(=O)c3ccc(Nc4cc[n+](C)c5ccc(N)cc45)cc3)cc2)cc1
- T/C (dose: 8.0 mg/kg/injection, schedule: Q04DX004 (sc), vehicle: distilled water + Tween-80): 74 % of control
- T/C (dose: 16.0 mg/kg/injection, schedule: Q04DX004 (sc), vehicle: distilled water + Tween-80): 211 % of control
- T/C (dose: 25.0 mg/kg/injection, schedule: Q04DX004 (sc), vehicle: distilled water + Tween-80): 118 % of control
- T/C (dose: 32.0 mg/kg/injection, schedule: Q04DX004 (sc), vehicle: distilled water + Tween-80): 303 % of control
- T/C (dose: 50.0 mg/kg/injection, schedule: Q04DX004 (sc), vehicle: distilled water + Tween-80): 51 % of control

SMILES: COC(=O)CC(N)C(=O)O (stereo not drawn)
- T/C (dose: 225.0 mg/kg/injection, schedule: Q04DX004 (sc), vehicle: saline with Tween-80): 103 % of control
- T/C (dose: 450.0 mg/kg/injection, schedule: Q04DX004 (sc), vehicle: saline with Tween-80): 81 % of control
- T/C (dose: 900.0 mg/kg/injection, schedule: Q04DX004 (sc), vehicle: saline with Tween-80): 69 % of control
- T/C (dose: 1800.0 mg/kg/injection, schedule: Q04DX004 (sc), vehicle: saline with Tween-80): 35 % of control

SMILES: CCC(C)Nc1ccc(N)cc1 (stereo not drawn)
- T/C (dose: 2.25 mg/kg/injection, schedule: Q04DX004 (sc), vehicle: Klucel (hydroxypropylcellulose) (HPC)): 64 % of control
- T/C (dose: 4.5 mg/kg/injection, schedule: Q04DX004 (sc), vehicle: Klucel (hydroxypropylcellulose) (HPC)): 64 % of control
- T/C (dose: 9.0 mg/kg/injection, schedule: Q04DX004 (sc), vehicle: Klucel (hydroxypropylcellulose) (HPC)): 101 % of control

SMILES: O=C1C(=O)c2ccccc2C(O)=C1CC=C(Cl)Cl
- T/C (dose: 100.0 mg/kg/injection, schedule: Q01DX010 (sc), vehicle: water): 183 % of control
- T/C (dose: 400.0 mg/kg/injection, schedule: Q01DX010 (sc), vehicle: water): 74 % of control and 213 % of control

SMILES: CCCCCCOC(CN(C)C)C(Cl)(Cl)Cl (stereo not drawn)
- T/C (dose: 400.0 mg/kg/injection, schedule: Q04DX004 (sc), vehicle: saline with Tween-80): 91 % of control
- T/C (dose: 800.0 mg/kg/injection, schedule: Q04DX004 (sc), vehicle: saline with Tween-80): 57 % of control
- T/C (dose: 1600.0 mg/kg/injection, schedule: Q04DX004 (sc), vehicle: saline with Tween-80): 81 % of control
- T/C (dose: 2400.0 mg/kg/injection, schedule: Q04DX004 (sc), vehicle: saline with Tween-80): 67 % of control

SMILES: O=C(O)/C=C/C(=O)Nc1ccc(Cl)c(Cl)c1
- T/C (dose: 50.0 mg/kg/injection, schedule: Q04DX004 (sc), vehicle: Klucel (hydroxypropylcellulose) (HPC)): 151 % of control
- T/C (dose: 100.0 mg/kg/injection, schedule: Q04DX004 (sc), vehicle: Klucel (hydroxypropylcellulose) (HPC)): 102 % of control
- T/C (dose: 200.0 mg/kg/injection, schedule: Q04DX004 (sc), vehicle: Klucel (hydroxypropylcellulose) (HPC)): 91 % of control

SMILES: NC(CCC(=O)NC(CS)C(=O)NCC(=O)O)C(=O)O (stereo not drawn)
- T/C [4]: 78 % of control
- T/C [1]: 168 % of control
- T/C [2]: 87 % of control

SMILES: CCN(CC)CCCC(C)Nc1c2ccc(Cl)cc2nc2ccc(OC)cc12 (stereo not drawn)
- T/C (dose: 50.0 mg/kg/injection, schedule: Q01DX010 (sc), vehicle: saline with Tween-80): 75 % of control
- T/C [5]: 91 % of control
- T/C (dose: 200.0 mg/kg/injection, schedule: Q01DX010 (sc), vehicle: saline with Tween-80): 38 % of control

SMILES: COc1ccc(CC2C(=O)NC(C)C(=O)N(C)C3C(=O)N(C)C(Cc4ccc(O)c(c4)Oc4ccc(cc4)C3O)C(=O)NC(C)C(=O)NC(C)C(=O)N2C)cc1 (stereo not drawn)
- T/C (dose: 0.25 mg/kg/injection, schedule: Q01DX010 (sc), vehicle: saline with Tween-80): 94 % of control

SMILES: OCC1OC(n2cnc3c2NC=NC[C@H]3O)CC1O (stereo partly drawn)
- T/C (dose: 1.0 mg/kg/injection, schedule: Q01DX010 (sc), vehicle: water): 168 % of control
- T/C (dose: 2.0 mg/kg/injection, schedule: Q01DX010 (sc), vehicle: water): 176 % of control

SMILES: S=C=NCCc1ccccc1
- T/C [5]: 57 % of control (2×) and 61 % of control
